Laboratory results reported in ChEMBL document CHEMBL1201862, “PubChem BioAssay data set” (2004).
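Method: 48-hour compound exposure of cells in 96-well plates, five concentrations, linear interpolation of endpoints. Here, GI50 denotes the concentration required for 50% inhibition of growth.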 Active and inactive are the calls of the source. No stated cut-off is given here; in the data, active = GI50 up to about 1.1 µM and inactive = higher.

Columns and labels:
Assay in all cases: NCI-60 cell line screen, 48 h
ACHN = tested on: ACHN
LOX IMVI = tested on: LOX IMVI
UO-31 = tested on: UO-31
NCI-H522 = tested on: NCI-H522
NCI-H460 = tested on: NCI-H460
SN12C = tested on: SN12C
HCT-116 = tested on: HCT-116
A498 = tested on: A498
CAKI-1 = tested on: CAKI-1
SNB-19 = tested on: SNB-19
BT-549 = tested on: BT-549
CCRF-CEM = tested on: CCRF-CEM
HCT-15 = tested on: HCT-15
NCI-H23 = tested on: NCI-H23
OVCAR-5 = tested on: OVCAR-5
M14 = tested on: M14
SK-MEL-2 = tested on: SK-MEL-2
U-251 = tested on: U-251
HOP-92 = tested on: HOP-92
SK-MEL-28 = tested on: SK-MEL-28
EKVX = tested on: EKVX
DU-145 = tested on: DU-145
UACC-257 = tested on: UACC-257
OVCAR-8 = tested on: OVCAR-8
MDA-MB-231 = tested on: MDA-MB-231
SF-295 = tested on: SF-295
MDA-N = tested on: MDA-N
RPMI-8226 = tested on: RPMI-8226
T47D = tested on: T47D
IGROV-1 = tested on: IGROV-1
Hs-578T = tested on: Hs-578T
SK-MEL-5 = tested on: SK-MEL-5
KM12 = tested on: KM12
A549 = tested on: A549
MCF7 = tested on: MCF7
HCC 2998 = tested on: HCC 2998
NCI/ADR-RES = tested on: NCI/ADR-RES
MDA-MB-435 = tested on: MDA-MB-435
HL-60 = tested on: HL-60
786-0 = tested on: 786-0
HT-29 = tested on: HT-29
MOLT-4 = tested on: MOLT-4
OVCAR-4 = tested on: OVCAR-4
SW-620 = tested on: SW-620
SF-268 = tested on: SF-268
PC-3 = tested on: PC-3
SR = tested on: SR
HOP-62 = tested on: HOP-62
TK-10 = tested on: TK-10
COLO 205 = tested on: COLO 205
SF-539 = tested on: SF-539
UACC-62 = tested on: UACC-62
OVCAR-3 = tested on: OVCAR-3

Nc1ccn(C2OC(C(OC3OC(CO)C(O)C(N)C3O)C(O)C(O)C(O)C(O)CO)C(N)C(O)C2O)c(=O)n1 (stereo not drawn)
GI50 (ACHN): 21.7 µM (inactive)
GI50 (LOX IMVI): 21.7 µM (inactive)
GI50 (UO-31): 52 µM (inactive)
GI50 (NCI-H522): 22.5 µM (inactive)
GI50 (NCI-H460): 22 µM (inactive)
GI50 (SN12C): > 100 µM (inactive)
GI50 (HCT-116): 46.3 µM (inactive)
GI50 (A498): > 100 µM (inactive)
GI50 (CAKI-1): 61 µM (inactive)
GI50 (SNB-19): 47.3 µM (inactive)
GI50 (BT-549): 31.3 µM (inactive)
GI50 (CCRF-CEM): > 100 µM (inactive)
GI50 (HCT-15): 36.3 µM
GI50 (NCI-H23): > 100 µM (inactive)
GI50 (OVCAR-5): 15 µM (inactive)
GI50 (M14): 44 µM (inactive)
GI50 (SK-MEL-2): > 100 µM (inactive)
GI50 (U-251): > 100 µM (inactive)
GI50 (HOP-92): 3.78 µM (inactive)
GI50 (SK-MEL-28): > 100 µM (inactive)
GI50 (EKVX): > 100 µM (inactive)
GI50 (DU-145): > 100 µM (inactive)
GI50 (UACC-257): > 100 µM (inactive)
GI50 (OVCAR-8): 81.5 µM (inactive)
GI50 (MDA-MB-231): 6.44 µM (inactive)
GI50 (SF-295): 13.1 µM (inactive)
GI50 (MDA-N): > 100 µM (inactive)
GI50 (RPMI-8226): > 100 µM (inactive)
GI50 (T47D): > 100 µM (inactive)
GI50 (IGROV-1): 30.7 µM (inactive)
GI50 (Hs-578T): 1.98 µM (inactive)
GI50 (SK-MEL-5): > 100 µM (inactive)
GI50 (KM12): 70 µM (inactive)
GI50 (A549): > 100 µM (inactive)
GI50 (MCF7): > 100 µM (inactive)
GI50 (HCC 2998): 5.26 µM (inactive)
GI50 (NCI/ADR-RES): 49.1 µM (inactive)
GI50 (MDA-MB-435): > 100 µM (inactive)
GI50 (HL-60): > 100 µM (inactive)
GI50 (786-0): 35.5 µM (inactive)
GI50 (HT-29): > 100 µM (inactive)
GI50 (MOLT-4): > 100 µM (inactive)
GI50 (OVCAR-4): 3.54 µM (inactive)
GI50 (SW-620): > 100 µM (inactive)
GI50 (SF-268): 11 µM (inactive)
GI50 (PC-3): 50.7 µM (inactive)
GI50 (SR): 19.9 µM (inactive)
GI50 (HOP-62): 20.7 µM (inactive)
GI50 (TK-10): 85.9 µM (inactive)
GI50 (COLO 205): > 100 µM (inactive)
GI50 (SF-539): 11.3 µM (inactive)
GI50 (UACC-62): 71 µM (inactive)
GI50 (OVCAR-3): 22.4 µM (inactive)
